Laboratory results: patent US12083124B2 (Incyte Corporation, priority 2019, dated 2024)
Read-outs that look alike come from different tables or passages of the source.

Assays:
[1] = target: wild-type un-phosphorylated FGFR3 (Homo sapiens, UniProt P22607); assay: FGFR Enzymatic Assay (FRET peptide phosphorylation), FGFR3
[2] = target: wild-type un-phosphorylated FGFR1 (Homo sapiens, UniProt P11362); assay: FGFR Enzymatic Assay (FRET peptide phosphorylation), FGFR1; details: pre-incubated for 4 hours
[3] = target: wild-type un-phosphorylated FGFR2 (Homo sapiens, UniProt P21802); assay: FGFR Enzymatic Assay (FRET peptide phosphorylation), FGFR2
Procedure: The inhibitor potency of the exemplified compounds was determined in an enzyme discontinuous assay that measures peptide phosphorylation using FRET measurements to detect product formation. Inhibitors were serially diluted in DMSO and a volume of 0.2 μL was transferred to the wells of a 384-well plate. […] Appropriate controls (enzyme blank and enzyme with no inhibitor) were included on the plate. […] The 10 μL/well reaction concentration of the peptide substrate was 500 nM whereas the ATP concentration was maintained near or below the ATP Km. The ATP Km values were pre-determined in a separate series of experiments. The reaction plate was incubated at 25° C. for 1 hr and the reactions were ended with the addition of 5 μL/well of quench solution (50 mM Tris, 150 mM NaCl, 0.5 mg/mL BSA, pH 7.8; 45 mM EDTA, 600 nM staurosporin, with Perkin Elmer Lance Reagents at 3.75 nM Eu-antibody PY20 and 180 nM APC-Streptavidin). The plate was allowed to equilibrate for ˜10 minutes at ambient temperature before scanning on a PheraStar plate reader (BMG Labtech) instrument.
Either GraphPad prism or XLfit was used to analyze the data. The IC50 values were derived by fitting the data to a four parameter logistic equation producing a sigmoidal dose-response curve with a variable Hill coefficient. Prism equation: Y=Bottom+(Top-Bottom)/(1+10^((Log IC50-X)*Hill slope)); XLfit equation: Y=(A+((B−A)/(1+((X/C)^D)))) where X is the logarithm of inhibitor concentration and Y is the response.
GraphPad prism3 was used to analyze the data. The IC50 values were derived by fitting the data to the equation for a sigmoidal dose-response with a variable slope. Y=Bottom+(Top-Bottom)/(1+10^((Log IC50-X)*Hill Slope)) where X is the logarithm of concentration and Y is the response.
The data in Table 1 was measured in wild-type un-phosphorylated FGFR1, FGFR2, FGFR3, and FGFR4 proteins.

[4] = read-out: FGFR1, wild-type un-phosphorylated FGFR1
[5] = read-out: FGFR2, wild-type un-phosphorylated FGFR2, pre-incubated for 4 hours
[6] = FGFR1, wild-type un-phosphorylated FGFR1

wild-type un-phosphorylated FGFR1, sequence (P11362 22-822): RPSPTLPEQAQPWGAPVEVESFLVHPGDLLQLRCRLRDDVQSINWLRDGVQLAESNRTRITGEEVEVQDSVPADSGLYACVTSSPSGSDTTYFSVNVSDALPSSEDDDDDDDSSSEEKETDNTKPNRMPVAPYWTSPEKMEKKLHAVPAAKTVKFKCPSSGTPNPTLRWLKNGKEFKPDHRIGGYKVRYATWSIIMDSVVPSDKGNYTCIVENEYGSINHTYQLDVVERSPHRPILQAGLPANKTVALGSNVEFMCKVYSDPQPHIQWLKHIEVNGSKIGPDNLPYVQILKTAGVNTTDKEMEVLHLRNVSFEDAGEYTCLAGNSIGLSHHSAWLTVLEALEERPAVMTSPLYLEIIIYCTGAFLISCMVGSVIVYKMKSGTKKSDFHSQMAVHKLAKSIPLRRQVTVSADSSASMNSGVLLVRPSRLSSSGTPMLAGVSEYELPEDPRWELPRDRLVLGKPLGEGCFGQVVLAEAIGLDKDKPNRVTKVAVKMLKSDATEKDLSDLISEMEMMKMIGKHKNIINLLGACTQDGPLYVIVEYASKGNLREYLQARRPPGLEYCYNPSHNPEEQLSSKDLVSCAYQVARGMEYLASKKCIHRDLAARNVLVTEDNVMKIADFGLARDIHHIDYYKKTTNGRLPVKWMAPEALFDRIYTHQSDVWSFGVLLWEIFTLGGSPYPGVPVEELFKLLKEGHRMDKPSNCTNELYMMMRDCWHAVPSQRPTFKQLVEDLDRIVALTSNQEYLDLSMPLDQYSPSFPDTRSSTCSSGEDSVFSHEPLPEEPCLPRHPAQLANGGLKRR
wild-type un-phosphorylated FGFR3, sequence (P22607 23-806): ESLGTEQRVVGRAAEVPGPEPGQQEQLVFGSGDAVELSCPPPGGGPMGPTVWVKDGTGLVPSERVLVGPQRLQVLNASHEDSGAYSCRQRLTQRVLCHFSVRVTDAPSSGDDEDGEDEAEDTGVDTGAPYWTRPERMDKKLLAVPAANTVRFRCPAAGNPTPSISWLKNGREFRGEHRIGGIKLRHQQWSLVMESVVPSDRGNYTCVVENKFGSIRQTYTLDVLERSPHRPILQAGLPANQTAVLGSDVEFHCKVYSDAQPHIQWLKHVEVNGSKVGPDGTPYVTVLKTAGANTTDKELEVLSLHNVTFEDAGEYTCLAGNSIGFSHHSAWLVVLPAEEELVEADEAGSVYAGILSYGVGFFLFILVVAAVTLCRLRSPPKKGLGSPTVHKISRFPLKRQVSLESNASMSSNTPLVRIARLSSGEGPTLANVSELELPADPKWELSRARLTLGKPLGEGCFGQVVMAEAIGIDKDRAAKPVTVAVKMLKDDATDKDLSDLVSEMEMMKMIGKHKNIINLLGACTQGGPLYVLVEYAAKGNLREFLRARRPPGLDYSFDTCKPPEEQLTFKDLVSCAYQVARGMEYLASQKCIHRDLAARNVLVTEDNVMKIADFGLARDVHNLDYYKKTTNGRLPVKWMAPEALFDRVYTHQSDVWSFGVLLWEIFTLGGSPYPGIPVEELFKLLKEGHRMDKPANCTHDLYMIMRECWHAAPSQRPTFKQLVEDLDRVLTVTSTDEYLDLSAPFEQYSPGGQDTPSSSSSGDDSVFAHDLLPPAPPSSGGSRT
wild-type un-phosphorylated FGFR2, sequence (P21802 22-821): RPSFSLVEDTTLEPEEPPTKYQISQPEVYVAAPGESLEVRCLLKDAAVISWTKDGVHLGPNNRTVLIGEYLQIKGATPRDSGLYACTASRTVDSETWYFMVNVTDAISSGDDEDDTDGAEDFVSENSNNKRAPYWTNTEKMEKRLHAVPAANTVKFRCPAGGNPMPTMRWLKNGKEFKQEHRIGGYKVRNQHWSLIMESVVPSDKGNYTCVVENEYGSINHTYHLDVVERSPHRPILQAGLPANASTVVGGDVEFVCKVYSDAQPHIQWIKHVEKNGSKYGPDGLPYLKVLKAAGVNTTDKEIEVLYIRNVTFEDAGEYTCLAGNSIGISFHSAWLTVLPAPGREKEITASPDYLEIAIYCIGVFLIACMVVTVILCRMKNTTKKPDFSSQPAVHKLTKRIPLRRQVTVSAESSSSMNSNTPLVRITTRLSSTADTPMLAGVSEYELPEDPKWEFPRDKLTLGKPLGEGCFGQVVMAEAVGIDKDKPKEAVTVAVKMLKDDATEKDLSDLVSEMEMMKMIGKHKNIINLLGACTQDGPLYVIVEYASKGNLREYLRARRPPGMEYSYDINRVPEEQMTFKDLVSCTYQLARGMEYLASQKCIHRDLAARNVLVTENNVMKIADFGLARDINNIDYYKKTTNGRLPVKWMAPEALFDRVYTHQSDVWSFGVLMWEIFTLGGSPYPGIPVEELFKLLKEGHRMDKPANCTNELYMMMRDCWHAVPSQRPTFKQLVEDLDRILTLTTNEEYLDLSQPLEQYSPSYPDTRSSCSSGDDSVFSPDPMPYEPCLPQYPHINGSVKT

COc1cc2[nH]nc(-c3ccc(C45CC4CN(C(=O)CO)C5)nc3)c2nc1-c1cccc2c1CCC2 (single isomer, unassigned) [Example 191C, 1-(1-(5-(5-(2,3-Dihydro-1H-inden-4-yl)-6-methoxy-1H-pyrazolo[4,3-b]pyridin-3-yl)pyridin-2-yl)-3-azabicyclo[3.1.0]hexan-3-yl)-2-hydroxyethan-1-one]
IC50 ([1]; read-out: FGFR3, wild-type un-phosphorylated FGFR3, pre-incubated for 4 hours): < 6 nM | IC50 [2, 4]: 6 to 40 nM | IC50 [3, 5]: < 6 nM

Cn1cc(-c2n[nH]c3cc(Cl)c(-c4cccc5c4CC(O)C5)nc23)cn1 (single isomer, unassigned) [Example 39, 4-(6-Chloro-3-(1-methyl-1H-pyrazol-4-yl)-1H-pyrazolo[4,3-b]pyridin-5-yl)-2,3-dihydro-1H-inden-2-ol]
IC50 [1]: < 6 nM | IC50 [2, 6]: 40 to 100 nM | IC50 [3, 5]: 6 to 40 nM

COc1cc2[nH]nc(-c3ccc(C4(C#N)CCN(C(=O)[C@H]5COCCN5C)C4)nc3)c2nc1-c1cccc2c1CCC2 (stereo partly drawn) [Example 195, 3-(5-(5-(2,3-Dihydro-1H-inden-4-yl)-6-methoxy-1H-pyrazolo[4,3-b]pyridin-3-yl)pyridin-2-yl)-1-((R)-4-methylmorpholine-3-carbonyl)pyrrolidine-3-carbonitrile]
IC50 [1]: < 6 nM | IC50 [2, 4]: 6 to 40 nM | IC50 [3]: < 6 nM

COc1cc2[nH]nc(-c3ccc(N4CCC(O)CC4)nc3)c2nc1-c1cccc(C)c1C [Example 46, 1-(5-(5-(2,3-Dimethylphenyl)-6-methoxy-1H-pyrazolo[4,3-b]pyridin-3-yl)pyridin-2-yl)piperidin-4-ol]
IC50 [1]: < 6 nM | IC50 [2, 6]: > 100 nM | IC50 [3]: < 6 nM

COc1cc2[nH]nc(-c3ccc(N4CCN(C)C(=O)C4)nc3)c2nc1-c1cccc(C)c1C [Example 45, 4-(5-(5-(2,3-Dimethylphenyl)-6-methoxy-1H-pyrazolo[4,3-b]pyridin-3-yl)pyridin-2-yl)-1-methylpiperazin-2-one]
IC50 [1]: < 6 nM | IC50 [2, 6]: > 100 nM | IC50 [3]: < 6 nM

COc1cc2[nH]nc(-c3ccc(C4CCN(C(=O)[C@H](C)O)CC4)nc3)c2nc1-c1cccc2c1CC(F)C2 (single isomer, unassigned) [Example 81]
IC50 [1]: < 6 nM | IC50 [2, 4]: 6 to 40 nM | IC50 [3]: < 6 nM

COc1cc2[nH]nc(-c3ccc(N4CCC(C(=O)N(C)C)CC4)nc3)c2nc1-c1cccc(C)c1C [Example 50, 1-(5-(5-(2,3-Dimethylphenyl)-6-methoxy-1H-pyrazolo[4,3-b]pyridin-3-yl)pyridin-2-yl)-N,N-dimethylpiperidine-4-carboxamide]
IC50 [1]: < 6 nM | IC50 [2, 6]: > 100 nM | IC50 [3]: < 6 nM

COc1cc2[nH]nc(-c3ccc(N4CCN5C[C@H](O)C[C@H]5C4)nc3)c2nc1-c1cccc2c1OCCO2 [Example 91, (7R,8aS)-2-(5-(5-(2,3-Dihydrobenzo[b][1,4]dioxin-5-yl)-6-methoxy-1H-pyrazolo[4,3-b]pyridin-3-yl)pyridin-2-yl)octahydropyrrolo[1,2-a]pyrazin-7-ol]
IC50 [1]: < 6 nM | IC50 [2, 6]: > 100 nM | IC50 [3, 5]: 6 to 40 nM

COc1cc2[nH]nc(-c3ccc(N4CCN5C[C@H](O)C[C@H]5C4)nc3)c2nc1-c1ccccc1C1CC1 [Example 92, (7R,8aS)-2-(5-(5-(2-Cyclopropylphenyl)-6-methoxy-1H-pyrazolo[4,3-b]pyridin-3-yl)pyridin-2-yl)octahydropyrrolo[1,2-a]pyrazin-7-ol]
IC50 [1]: < 6 nM | IC50 [2, 6]: > 100 nM | IC50 [3, 5]: 6 to 40 nM

[2H]C([2H])([2H])c1cccc(-c2nc3c(-c4ccc(N5CCN(C)CC5)nc4)n[nH]c3cc2OC)c1C [Example 68, 6-Methoxy-5-(2-methyl-3-(methyl-d3)phenyl)-3-(6-(4-methylpiperazin-1-yl)pyridin-3-yl)-1H-pyrazolo[4,3-b]pyridine]
IC50 [1]: < 6 nM | IC50 [2, 6]: 40 to 100 nM | IC50 [3]: < 6 nM
